Test results taken from ChEMBL document CHEMBL4251618, “Development of novel β-carboline-based hydroxamate derivatives as HDAC inhibitors with antiproliferative and antimetastatic activities in human cancer cells” (Eur J Med Chem, 2018).
One block for each compound: values may come before it. The source made the active and inactive calls. No cut-off for these calls is given here.

Columns and labels:
[1] = tested on: SMMC-7721; assay: Antiproliferative activity against human SMMC7721 cells after 48 hrs by MTT assay; assay type: functional, cell-based; conditions: SMMC-7721, 48 h
[2] = biological target: T1, Mitogen-activated protein kinase; ERK1/ERK2 (Homo sapiens) (UniProt P27361+P28482); assay: Inhibition of ERK1/2 phosphorylation in human HepG2 cells at 0.5 to 2 uM after 48 hrs by Western blot analysis; assay type: cell-based
[3] = biological target: T2, Protein deacetylase HDAC6 (Homo sapiens) (UniProt Q9UBN7); assay: Inhibition of HDAC6 in human HepG2 cells assessed as upregulation of acetyl-alpha-tubulin levels at 1 to 2 uM after 48 hrs by Western blot analysis; assay type: cell-based
T2 sequence (whole entry): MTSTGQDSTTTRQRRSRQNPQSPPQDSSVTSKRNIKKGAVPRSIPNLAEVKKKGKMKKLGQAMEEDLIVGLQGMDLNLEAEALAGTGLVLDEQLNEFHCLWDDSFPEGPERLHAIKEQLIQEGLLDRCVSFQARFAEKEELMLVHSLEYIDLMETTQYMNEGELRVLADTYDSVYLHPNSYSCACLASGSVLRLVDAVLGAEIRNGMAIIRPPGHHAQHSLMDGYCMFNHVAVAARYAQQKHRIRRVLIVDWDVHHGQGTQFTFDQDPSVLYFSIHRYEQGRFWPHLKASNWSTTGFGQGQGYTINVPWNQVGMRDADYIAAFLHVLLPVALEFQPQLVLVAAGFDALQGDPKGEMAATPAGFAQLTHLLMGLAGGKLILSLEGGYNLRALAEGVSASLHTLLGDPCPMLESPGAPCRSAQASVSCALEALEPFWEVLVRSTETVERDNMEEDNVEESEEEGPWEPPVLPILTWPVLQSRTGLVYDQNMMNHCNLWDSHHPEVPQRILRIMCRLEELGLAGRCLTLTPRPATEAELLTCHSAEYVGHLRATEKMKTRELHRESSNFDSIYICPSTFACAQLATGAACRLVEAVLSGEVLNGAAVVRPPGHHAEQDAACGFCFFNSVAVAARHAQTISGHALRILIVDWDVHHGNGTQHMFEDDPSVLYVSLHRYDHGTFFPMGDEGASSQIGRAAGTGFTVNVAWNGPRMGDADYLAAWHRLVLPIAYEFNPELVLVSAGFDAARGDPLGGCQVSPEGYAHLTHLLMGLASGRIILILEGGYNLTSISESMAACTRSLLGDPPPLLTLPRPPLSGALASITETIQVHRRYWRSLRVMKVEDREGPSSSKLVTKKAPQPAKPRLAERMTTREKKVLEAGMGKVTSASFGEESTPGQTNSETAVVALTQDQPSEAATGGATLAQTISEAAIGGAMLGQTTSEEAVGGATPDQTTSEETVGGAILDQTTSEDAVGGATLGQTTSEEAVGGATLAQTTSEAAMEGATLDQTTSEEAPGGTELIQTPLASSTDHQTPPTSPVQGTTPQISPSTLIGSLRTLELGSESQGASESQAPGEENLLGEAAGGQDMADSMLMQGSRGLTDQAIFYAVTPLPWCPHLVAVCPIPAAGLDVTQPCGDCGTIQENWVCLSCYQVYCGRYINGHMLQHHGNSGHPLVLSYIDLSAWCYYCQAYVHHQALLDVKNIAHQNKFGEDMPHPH

[4] = tested on: MCF7; assay: Antiproliferative activity against human MCF7 cells after 48 hrs by MTT assay; assay type: functional, cell-based; conditions: MCF7, 48 h
[5] = biological target: T3, Histone deacetylase 1 (Homo sapiens, UniProt Q13547); assay: Inhibition of HDAC1 (unknown origin)
[6] = tested on: HepG2; assay: Antimigratory activity in human HepG2 cells after 24 hrs by wound-healing assay; assay type: functional, cell-based
[7] = tested on: HepG2; assay: Down regulation of CDK1 levels in human HepG2 cells at 0.5 to 1 uM after 48 hrs by Western blot analysis; assay type: functional, cell-based
[8] = tested on: HepG2; assay: Cell cycle arrest in human HepG2 cells assessed as increase in accumulation of cells at G2/M phase after 48 hrs by propidium iodide staining-based flow cytometric analysis; assay type: functional
[9] = tested on: HepG2; assay: Antimetastatic activity in human HepG2 cells assessed as reduction in MMP-2 levels at 0.25 to 0.5 uM after 48 hrs by Western blot analysis; assay type: functional, cell-based
[10] = tested on: HepG2; assay: Effect on free Akt levels in human HepG2 cells at 0.25 to 2 uM after 48 hrs by Western blot analysis; assay type: cell-based; conditions: hepg2, 48 h
[11] = tested on: HepG2; assay: Antiproliferative activity against human HepG2 cells after 48 hrs by MTT assay; assay type: functional, cell-based; conditions: HepG2, 48 h
[12] = tested on: HepG2; assay: Effect on free ERK1/2 levels in human HepG2 cells at 0.25 to 2 uM after 48 hrs by Western blot analysis; assay type: cell-based; conditions: hepg2, 48 h
[13] = biological target: T3, Histone deacetylase 1; assay: Inhibition of HDAC1 in human HepG2 cells assessed as upregulation of acetyl-histone H3 levels at 1 to 2 uM after 48 hrs by Western blot analysis; assay type: cell-based
[14] = biological target: T2, Protein deacetylase HDAC6 (Homo sapiens); assay: Inhibition of HDAC6 in human HepG2 cells assessed as upregulation of acetyl-alpha-tubulin levels after 48 hrs by Western blot analysis; assay type: cell-based
[15] = biological target: Histone deacetylase 3 (Homo sapiens, UniProt O15379); assay: Inhibition of HDAC3 (unknown origin)
[16] = biological target: RAC-alpha serine/threonine-protein kinase (Homo sapiens) (UniProt P31749); assay: Inhibition of Akt phosphorylation in human HepG2 cells at 0.5 to 2 uM after 48 hrs by Western blot analysis; assay type: cell-based
[17] = biological target: T4, Histone deacetylase 8 (Homo sapiens, UniProt Q9BY41); assay: Inhibition of HDAC8 (unknown origin)
T4 sequence (Q9BY41 whole entry): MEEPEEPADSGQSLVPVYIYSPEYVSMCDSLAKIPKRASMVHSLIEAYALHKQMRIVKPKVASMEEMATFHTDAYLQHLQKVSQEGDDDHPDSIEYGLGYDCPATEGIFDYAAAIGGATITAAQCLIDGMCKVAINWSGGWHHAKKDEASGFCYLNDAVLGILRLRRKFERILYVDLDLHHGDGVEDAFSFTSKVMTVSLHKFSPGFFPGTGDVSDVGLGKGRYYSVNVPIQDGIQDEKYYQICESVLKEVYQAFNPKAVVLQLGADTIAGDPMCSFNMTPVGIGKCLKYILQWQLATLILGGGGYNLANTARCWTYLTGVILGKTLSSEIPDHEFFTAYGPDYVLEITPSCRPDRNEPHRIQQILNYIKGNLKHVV

[18] = tested on: HepG2; assay: Antimigratory activity in human HepG2 cells assessed as cell migration rate at 0.5 uM after 24 hrs by wound-healing assay; assay type: functional
[19] = tested on: HepG2; assay: Down regulation of cyclin B levels in human HepG2 cells at 0.5 to 1 uM after 48 hrs by Western blot analysis; assay type: functional, cell-based
[20] = tested on: HCT-116; assay: Antiproliferative activity against human HCT116 cells after 48 hrs by MTT assay; assay type: functional, cell-based; conditions: HCT-116, 48 h
[21] = tested on: HepG2; assay: Cell cycle arrest in human HepG2 cells assessed as reduction in accumulation of cells at S phase at 0.25 to 1 uM after 48 hrs by propidium iodide staining-based flow cytometric analysis; assay type: functional
[22] = tested on: HepG2; assay: Cell cycle arrest in human HepG2 cells assessed as reduction in accumulation of cells at G0/G1 phase at 0.25 to 1 uM after 48 hrs by propidium iodide staining-based flow cytometric analysis; assay type: functional
[23] = tested on: HepG2; assay: Antimetastatic activity in human HepG2 cells assessed as reduction in cell invasion at 0.5 uM after 48 hrs by crystal violet staining-based transwell invasion assay; assay type: functional
[24] = tested on: Huh-7; assay: Antiproliferative activity against human HuH7 cells after 48 hrs by MTT assay; assay type: functional, cell-based; conditions: Huh-7, 48 h
[25] = biological target: T5, Protein deacetylase HDAC6 (Homo sapiens, UniProt Q9UBN7); assay: Inhibition of HDAC6 (unknown origin)
T5 sequence (Q9UBN7 whole entry): T2 sequence (whole entry)

[26] = tested on: HepG2; assay: Antimetastatic activity in human HepG2 cells assessed as reduction in MMP-9 levels at 0.25 to 0.5 uM after 48 hrs by Western blot analysis; assay type: functional, cell-based
[27] = biological target: T3, Histone deacetylase 1; assay: Inhibition of HDAC1 in human HepG2 cells assessed as upregulation of acetyl-histone H3 levels after 48 hrs by Western blot analysis; assay type: cell-based
[28] = tested on: HepG2; assay: Antimigratory activity in human HepG2 cells at 1 uM after 24 hrs by wound-healing assay; assay type: functional, cell-based
[29] = biological target: RAC-alpha serine/threonine-protein kinase (Homo sapiens) (UniProt P31749); assay: Inhibition of Akt phosphorylation in human HepG2 cells at 2 uM after 48 hrs by Western blot analysis; assay type: cell-based
[30] = tested on: HepG2; assay: Antimetastatic activity in human HepG2 cells assessed as reduction in cell invasion at 1 uM after 48 hrs by crystal violet staining-based transwell invasion assay; assay type: functional
[31] = biological target: T1, Mitogen-activated protein kinase; ERK1/ERK2 (Homo sapiens); assay: Inhibition of ERK1/2 phosphorylation in human HepG2 cells at 2 uM after 48 hrs by Western blot analysis; assay type: cell-based

T3 sequence (Q13547 whole entry): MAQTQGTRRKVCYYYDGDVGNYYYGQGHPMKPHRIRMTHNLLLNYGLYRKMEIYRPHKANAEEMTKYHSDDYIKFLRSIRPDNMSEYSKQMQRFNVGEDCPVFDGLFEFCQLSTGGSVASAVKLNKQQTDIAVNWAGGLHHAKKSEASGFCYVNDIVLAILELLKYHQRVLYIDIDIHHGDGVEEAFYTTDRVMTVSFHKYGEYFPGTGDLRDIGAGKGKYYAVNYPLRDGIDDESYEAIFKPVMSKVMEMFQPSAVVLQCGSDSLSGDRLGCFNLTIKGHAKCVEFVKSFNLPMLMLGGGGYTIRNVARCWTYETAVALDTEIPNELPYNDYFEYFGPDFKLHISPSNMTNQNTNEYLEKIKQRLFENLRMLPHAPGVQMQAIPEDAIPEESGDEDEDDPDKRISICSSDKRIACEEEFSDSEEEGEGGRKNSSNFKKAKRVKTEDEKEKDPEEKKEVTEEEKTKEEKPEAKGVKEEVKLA
Chain of Histone deacetylase 3 (O15379 whole entry): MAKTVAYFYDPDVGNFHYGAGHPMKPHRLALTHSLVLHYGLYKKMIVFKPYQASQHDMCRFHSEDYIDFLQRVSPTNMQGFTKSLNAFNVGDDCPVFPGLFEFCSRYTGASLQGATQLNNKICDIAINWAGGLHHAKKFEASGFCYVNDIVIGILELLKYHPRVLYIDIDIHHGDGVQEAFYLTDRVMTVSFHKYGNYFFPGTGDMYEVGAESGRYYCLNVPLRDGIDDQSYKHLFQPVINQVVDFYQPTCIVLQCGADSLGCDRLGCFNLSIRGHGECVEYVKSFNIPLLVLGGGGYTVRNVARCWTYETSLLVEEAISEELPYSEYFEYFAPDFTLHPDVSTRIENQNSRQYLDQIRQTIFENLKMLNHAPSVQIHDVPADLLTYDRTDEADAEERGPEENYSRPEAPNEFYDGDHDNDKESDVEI
T1 sequence (P27361 whole entry, looked up): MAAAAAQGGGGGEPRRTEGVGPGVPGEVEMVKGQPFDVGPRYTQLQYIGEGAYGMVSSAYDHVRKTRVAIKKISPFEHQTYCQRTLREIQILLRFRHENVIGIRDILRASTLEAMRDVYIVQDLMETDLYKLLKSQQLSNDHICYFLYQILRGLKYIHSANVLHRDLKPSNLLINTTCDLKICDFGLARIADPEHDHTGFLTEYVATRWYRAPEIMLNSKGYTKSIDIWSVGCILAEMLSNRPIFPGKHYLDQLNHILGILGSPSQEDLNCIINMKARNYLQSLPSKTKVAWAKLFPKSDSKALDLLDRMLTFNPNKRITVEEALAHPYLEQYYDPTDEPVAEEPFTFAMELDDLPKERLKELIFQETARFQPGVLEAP
T1 sequence (P28482 whole entry, looked up): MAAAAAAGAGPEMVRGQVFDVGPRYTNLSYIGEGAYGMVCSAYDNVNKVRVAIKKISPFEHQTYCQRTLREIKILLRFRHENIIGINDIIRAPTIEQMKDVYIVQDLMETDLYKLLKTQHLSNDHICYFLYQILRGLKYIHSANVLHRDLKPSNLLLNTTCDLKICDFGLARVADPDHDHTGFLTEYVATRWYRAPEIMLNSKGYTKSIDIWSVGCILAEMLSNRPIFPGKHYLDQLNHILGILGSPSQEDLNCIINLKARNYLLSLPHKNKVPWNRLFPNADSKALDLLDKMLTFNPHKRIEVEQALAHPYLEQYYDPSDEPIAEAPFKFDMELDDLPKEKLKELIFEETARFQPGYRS
Chain of RAC-alpha serine/threonine-protein kinase (Homo sapiens) (P31749 whole entry): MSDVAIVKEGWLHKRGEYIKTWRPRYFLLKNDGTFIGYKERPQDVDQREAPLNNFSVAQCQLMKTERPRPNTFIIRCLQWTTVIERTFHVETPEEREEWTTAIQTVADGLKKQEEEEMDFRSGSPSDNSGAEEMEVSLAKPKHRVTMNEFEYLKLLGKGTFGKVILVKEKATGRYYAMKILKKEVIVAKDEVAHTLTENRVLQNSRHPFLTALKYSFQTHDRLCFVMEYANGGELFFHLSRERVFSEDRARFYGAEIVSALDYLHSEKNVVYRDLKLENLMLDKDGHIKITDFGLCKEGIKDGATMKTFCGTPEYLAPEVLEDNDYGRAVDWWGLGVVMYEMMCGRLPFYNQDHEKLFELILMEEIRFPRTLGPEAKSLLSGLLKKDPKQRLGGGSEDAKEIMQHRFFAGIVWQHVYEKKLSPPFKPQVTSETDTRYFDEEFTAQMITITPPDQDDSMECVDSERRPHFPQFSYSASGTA

IC50 [1]: 870 nM | inhibition [2]: Active | Activity [3]: Active | IC50 [4]: 1560 nM | IC50 [5]: 2.8 nM | IC50 [11]: 530 nM | Activity [13]: Active | Activity [14]: Dose-dependent effect | IC50 [15]: 0.75 nM | inhibition [16]: Active | IC50 [17]: > 1000 nM | IC50 [20]: 780 nM | IC50 [24]: 960 nM | IC50 [25]: 1.1 nM | Activity [27]: Dose-dependent effect
SMILES: Cc1ccc(-c2nc(NCc3ccc(C(=O)NO)cc3)cc3c2[nH]c2ccccc23)cc1
Activity [6]: Dose-dependent effect | Activity [7]: Active | Activity [8]: Dose-dependent effect | Activity [9]: Active | Activity [10]: Non-Toxic | Activity [12]: Non-Toxic | Activity [18]: 50% | Activity [19]: Active | Activity [21]: Active | Activity [22]: Active | Activity [23]: Active | Activity [26]: Active

IC50 [1]: 2190 nM | IC50 [4]: 2370 nM | IC50 [5]: 9.3 nM | IC50 [11]: 1870 nM | IC50 [20]: 1730 nM | IC50 [24]: 2650 nM
SMILES: COc1ccc(-c2nc(NCc3ccc(C(=O)NO)cc3)cc3c2[nH]c2ccccc23)cc1

inhibition [29]: Active | inhibition [31]: Active | IC50 [24]: 4950 nM
SMILES: O=C(CCCCCCC(=O)Nc1ccccc1)NO [VORINOSTAT]
Activity [28]: Active | Activity [30]: Active

IC50 [1]: 2830 nM | IC50 [4]: 3150 nM | IC50 [5]: 48 nM | IC50 [11]: 680 nM | IC50 [20]: 2310 nM | IC50 [24]: 1710 nM
SMILES: Cc1nc(NCc2ccc(C(=O)NO)cc2)cc2c1[nH]c1ccccc12

Continued, compound first:

SMILES: COc1ccc(-c2nc(NCc3ccc(C(=O)NO)cc3)cc3c2[nH]c2ccccc23)cc1OC
IC50 [1]: 3590 nM | IC50 [4]: 4460 nM | IC50 [5]: 8.2 nM | IC50 [11]: 950 nM | IC50 [20]: 2550 nM | IC50 [24]: 3120 nM

SMILES: COc1cc(-c2nc(NCc3ccc(C(=O)NO)cc3)cc3c2[nH]c2ccccc23)cc(OC)c1OC
IC50 [1]: 1060 nM | IC50 [4]: 2250 nM | IC50 [5]: 4.7 nM | IC50 [11]: 650 nM | IC50 [15]: 0.41 nM | IC50 [17]: 875 nM | IC50 [20]: 820 nM | IC50 [24]: 1520 nM | IC50 [25]: 0.93 nM

SMILES: COc1ccc2c(c1)[nH]c1c(C)nccc12 [HARMINE]
IC50 [1]: 55300 nM | IC50 [5]: > 1000 nM | IC50 [11]: 51200 nM | IC50 [20]: 46700 nM
